Source: patent US20130303509A1, “NAMPT INHIBITORS” (AbbVie Inc., priority 2012, published 2013)

These compounds were tested on PC3 cells (assay: NAMPT Cell Proliferation Assay). Settings: Homo sapiens, PC-3, 120 h, 5 days incubation, cell viability by Cell Titer Glo.
Assay type: cell-based
Procedure, shortened: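 Five-day CellTiter-Glo viability readout in PC3 cells grown in RPMI/10% heat-inactivated FBS. Compounds added after overnight attachment as a 10-fold dilution series, […]. Percent inhibition fitted to sigmoidal dose-response to derive IC50.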

IC50 [nM] | Structure (SMILES)
6.27 | CCC(C)(C)C(=O)N1CCC(c2ccc(NC(=O)[C@H]3CCN(c4cccnn4)C3)cc2)CC1 [Example 718, (3S)-N-{4-[1-(2,2-dimethylbutanoyl)piperidin-4-yl]phenyl}-1-(pyridazin-3-yl)pyrrolidine-3-carboxamide]
38.9 | CCC(C)(C)CN1CCC(Oc2ccc(NC(=O)C3CN(c4cccnc4)C3)cc2)CC1 [Example 84, N-(4-{[1-(2,2-dimethylbutyl)piperidin-4-yl]oxy}phenyl)-1-(pyridin-3-yl)azetidine-3-carboxamide]
7.26 | O=C(Nc1ccc(C2CCN(C(=O)CCCc3cccs3)CC2)cc1)[C@H]1CCN(c2cccnn2)C1 [Example 642, (3S)-1-(pyridazin-3-yl)-N-(4-{1-[4-(thiophen-2-yl)butanoyl]piperidin-4-yl}phenyl)pyrrolidine-3-carboxamide]
118 | CC[C@H](C(=O)N1CCC(S(=O)(=O)c2ccc(NC(=O)C3CN(c4cccnn4)C3)cc2)CC1)c1ccccc1 [Example 571, N-[4-({1-[(2S)-2-phenylbutanoyl]piperidin-4-yl}sulfonyl)phenyl]-1-(pyridazin-3-yl)azetidine-3-carboxamide]
0.47 | CC(C)CC(=O)N1CC[C@@H](Oc2ccc(NC(=O)C3CN(c4cccnn4)C3)cc2)C1 [Example 520, N-(4-{[(3R)-1-(3-methylbutanoyl)pyrrolidin-3-yl]oxy}phenyl)-1-(pyridazin-3-yl)azetidine-3-carboxamide]
0.87 | O=C(Nc1ccc(C2CCN(C(=O)c3ccoc3)CC2)cc1)C1CN(c2cccnn2)C1 [Example 375, N-{4-[1-(furan-3-ylcarbonyl)piperidin-4-yl]phenyl}-1-(pyridazin-3-yl)azetidine-3-carboxamide]
20.8 | CC[C@H](C)C(=O)N1CCC(Oc2ccc(NC(=O)C3CN(c4ccnnc4)C3)cc2)CC1 [Example 307, N-[4-({1-[(2S)-2-methylbutanoyl]piperidin-4-yl}oxy)phenyl]-1-(pyridazin-4-yl)azetidine-3-carboxamide]
7.38 | CCOCCC(=O)N1CCC(Oc2ccc(NC(=O)C3CN(c4cccnc4)C3)cc2)CC1 [Example 39, N-(4-{[1-(3-ethoxypropanoyl)piperidin-4-yl]oxy}phenyl)-1-(pyridin-3-yl)azetidine-3-carboxamide]
0.826 | O=C(Nc1ccc(C2CCN(C(=O)c3ccccc3F)CC2)cc1F)C1CN(c2cccnn2)C1 [Example 828, N-{2-fluoro-4-[1-(2-fluorobenzoyl)piperidin-4-yl]phenyl}-1-(pyridazin-3-yl)azetidine-3-carboxamide]
19.7 | O=C(Nc1ccc(O[C@@H]2CCN(C(=O)c3cc(F)cc(F)c3)C2)cc1)[C@H]1CCN(c2cccnn2)C1 [Example 778, (3S)-N-(4-{[(3R)-1-(3,5-difluorobenzoyl)pyrrolidin-3-yl]oxy}phenyl)-1-(pyridazin-3-yl)pyrrolidine-3-carboxamide]
3.31 | O=C(Nc1ccc(OC2CCN(C(=O)c3ccoc3)CC2)cc1)C1CN(c2cccnc2)C1 [Example 54, N-(4-{[1-(furan-3-ylcarbonyl)piperidin-4-yl]oxy}phenyl)-1-(pyridin-3-yl)azetidine-3-carboxamide]
3.72 | CC(C)(C)c1ccc(C(=O)N2CCC(c3ccc(NC(=O)C4CN(c5cccnn5)C4)cc3)CC2)cc1 [Example 393, N-{4-[1-(4-tert-butylbenzoyl)piperidin-4-yl]phenyl}-1-(pyridazin-3-yl)azetidine-3-carboxamide]
1.02 | Cc1ccc(C(=O)N2CC[C@@H](Oc3ccc(NC(=O)C4CN(c5cccnn5)C4)cc3)C2)s1 [Example 500, N-[4-({(3R)-1-[(5-methylthiophen-2-yl)carbonyl]pyrrolidin-3-yl}oxy)phenyl]-1-(pyridazin-3-yl)azetidine-3-carboxamide]
90.5 | O=C(Nc1ccc(OC2CCN(C(=O)C3CC3)CC2)cc1)C1CN(c2ccnnc2)C1 [Example 301, N-(4-{[1-(cyclopropylcarbonyl)piperidin-4-yl]oxy}phenyl)-1-(pyridazin-4-yl)azetidine-3-carboxamide]
74.2 | Cc1ncccc1N1CC(C(=O)Nc2ccc(C3CCN(C(=O)C(C)(C)C)CC3)cc2)C1 [Example 185, N-{4-[1-(2,2-dimethylpropanoyl)piperidin-4-yl]phenyl}-1-(2-methylpyridin-3-yl)azetidine-3-carboxamide]
62.7 | CCCCC(=O)N1CC(Oc2ccc(NC(=O)C3CN(c4ccnnc4)C3)cc2)C1 [Example 210, N-{4-[(1-pentanoylazetidin-3-yl)oxy]phenyl}-1-(pyridazin-4-yl)azetidine-3-carboxamide]
6.48 | CC(C)CCC(=O)N1CCC(Oc2ccc(NC(=O)C3CN(c4cccnc4)C3)cc2)CC1 [Example 37, N-(4-{[1-(4-methylpentanoyl)piperidin-4-yl]oxy}phenyl)-1-(pyridin-3-yl)azetidine-3-carboxamide]
1.03 | COCCOCC(=O)N1CCC(c2ccc(NC(=O)C3CN(c4cccnc4)C3)cc2)CC1 [Example 123, N-(4-{1-[(2-methoxyethoxy)acetyl]piperidin-4-yl}phenyl)-1-(pyridin-3-yl)azetidine-3-carboxamide]

IC50 [nM] | Structure (SMILES)
7.09 | Cc1cnc(C(=O)N2CCC(c3ccc(NC(=O)C4CN(c5cccnn5)C4)cc3)CC2)cn1 [Example 378, N-(4-{1-[(5-methylpyrazin-2-yl)carbonyl]piperidin-4-yl}phenyl)-1-(pyridazin-3-yl)azetidine-3-carboxamide]
0.93 | O=C(Nc1ccc(C2CCN(C(=O)c3ccccc3Cl)CC2)cc1)C1CN(c2ccnnc2)C1 [Example 525, N-{4-[1-(2-chlorobenzoyl)piperidin-4-yl]phenyl}-1-(pyridazin-4-yl)azetidine-3-carboxamide]
2.57 | Cc1ccc(C(=O)N2CCC(c3ccc(NC(=O)C4CN(c5ccnnc5)C4)cc3)CC2)s1 [Example 539, N-(4-{1-[(5-methylthiophen-2-yl)carbonyl]piperidin-4-yl}phenyl)-1-(pyridazin-4-yl)azetidine-3-carboxamide]
1400 | CC(C)Cn1cc(-c2ccc(C(=O)N[C@@H]3CCN(c4cccnn4)C3)s2)cn1 [Example 605, 5-[1-(2-methylpropyl)-1H-pyrazol-4-yl]N-[(3R)-1-(pyridazin-3-yl)pyrrolidin-3-yl]thiophene-2-carboxamide]
0.62 | O=C(Nc1ccc(C2CCN(C(=O)c3cccs3)CC2)cc1)C1CN(c2cccnn2)C1 [Example 376, 1-(pyridazin-3-yl)-N-{4-[1-(thiophen-2-ylcarbonyl)piperidin-4-yl]phenyl}azetidine-3-carboxamide]
5.98 | CC(C)CC(=O)N1CCC(c2ccc(NC(=O)C3CN(c4ccnnc4)C3)cc2)CC1 [Example 556, N-{4-[1-(3-methylbutanoyl)piperidin-4-yl]phenyl}-1-(pyridazin-4-yl)azetidine-3-carboxamide]
214 | O=C(Nc1ccc(O[C@@H]2CCN(C(=O)c3cccc(OC(F)(F)F)c3)C2)cc1)C1CN(c2ccnnc2)C1 [Example 462, 1-(pyridazin-4-yl)-N-[4-({(3R)-1-[3-(trifluoromethoxy)benzoyl]pyrrolidin-3-yl}oxy)phenyl]azetidine-3-carboxamide]
238 | CCC(=O)N1CCC(c2ccc(NC(=O)C3CN(c4cccnc4C)C3)cc2)CC1 [Example 181, 1-(2-methylpyridin-3-yl)-N-[4-(1-propanoylpiperidin-4-yl)phenyl]azetidine-3-carboxamide]
24.6 | CC(C)(C)C(=O)N1CCC(Oc2ccc(NC(=O)[C@H]3CCN(c4cccnn4)C3)cc2)CC1 [Example 801, (3S)-N-(4-{[1-(2,2-dimethylpropanoyl)piperidin-4-yl]oxy}phenyl)-1-(pyridazin-3-yl)pyrrolidine-3-carboxamide]
22.1 | O=C(N[C@H]1CCN(c2cccnn2)C1)c1ccc(C2CCN(C(=O)c3ccccc3)CC2)s1 [Example 764, 5-(1-benzoylpiperidin-4-yl)-N-[(3S)-1-(pyridazin-3-yl)pyrrolidin-3-yl]thiophene-2-carboxamide]
9.72 | O=C(Nc1ccc(C2CCN(C(=O)CCC(F)(F)F)CC2)cc1)[C@H]1CCN(c2cccnn2)C1 [Example 653, (3S)-1-(pyridazin-3-yl)-N-{4-[1-(4,4,4-trifluorobutanoyl)piperidin-4-yl]phenyl}pyrrolidine-3-carboxamide]
671 | CC(C)(O)C(=O)N1CC(Oc2ccc(NC(=O)C3CN(c4ccnnc4)C3)cc2)C1 [Example 207, N-(4-{[1-(2-hydroxy-2-methylpropanoyl)azetidin-3-yl]oxy}phenyl)-1-(pyridazin-4-yl)azetidine-3-carboxamide]
6.79 | CC1(C(=O)N2CCC(c3ccc(NC(=O)[C@H]4CCN(c5cccnn5)C4)cc3)CC2)CC1 [Example 712, (3S)-N-(4-{1-[(1-methylcyclopropyl)carbonyl]piperidin-4-yl}phenyl)-1-(pyridazin-3-yl)pyrrolidine-3-carboxamide]
16.1 | CC(C)C(=O)N1CCC(c2ccc(NC(=O)[C@H]3CCN(c4cccnn4)C3)cc2)CC1 [Example 310, (3S)—N-{4-[1-(2-methylpropanoyl)piperidin-4-yl]phenyl}-1-(pyridazin-3-yl)pyrrolidine-3-carboxamide]
8.63 | O=C(Nc1ccc(C2CCN(C(=O)c3ccc(Cl)c(Cl)c3)CC2)cc1)C1CN(c2cccnn2)C1 [Example 364, N-{4-[1-(3,4-dichlorobenzoyl)piperidin-4-yl]phenyl}-1-(pyridazin-3-yl)azetidine-3-carboxamide]
6.8 | CCCCC(=O)N1CCC(Oc2ccc(NC(=O)C3CN(c4cccnc4)C3)cc2)CC1 [Example 34, N-{4-[(1-pentanoylpiperidin-4-yl)oxy]phenyl}-1-(pyridin-3-yl)azetidine-3-carboxamide]
60.5 | CCC(CC)C(=O)N1CCC(c2ccc(NC(=O)C3CN(c4ccc(F)nn4)C3)cc2)CC1 [Example 822, N-{4-[1-(2-ethylbutanoyl)piperidin-4-yl]phenyl}-1-(6-fluoropyridazin-3-yl)azetidine-3-carboxamide]
